Holding throughout (assay type): cell-based
The subject of one experiment is TCCS cells. Description: human CML cell proliferation inhibition. Conditions: 72 hours, Cell Counting Kit-8. In short, it runs like this:
(§1)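 Seed 1×10^4 cells/well; add compound, 9 concentrations by 5-fold dilution, final 0–10 μM, or DMSO; incubate 72 h, 37 °C, CO2; add CCK-8 for 2 h; read A450; normalise to vehicle; fit GI50.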

A further experiment concerns KOPM28 cells. Description: human CML cell proliferation inhibition. The settings on record: 72 hours, Cell Counting Kit-8. In short, it runs like this:
as §1

The next experiment deals with T315I-TCCS cells. The experiment is described as follows: human CML cell proliferation inhibition. The settings on record: 72 hours, Cell Counting Kit-8. In short, it runs like this: as §1
The test system of the next experiment is T315I-KOPM28 cells. Description: human CML cell proliferation inhibition. Conditions: 72 hours, Cell Counting Kit-8. In short, it runs like this:
as §1

Another experiment relates to T315I-Bcr-Abl (Ba/F3). Description: Ba/F3 cell proliferation inhibition. The settings on record: BaF3; 72 hours, Cell Counting Kit-8. In short, it runs like this: (§2)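 GI50 derived from CCK-8 absorbance at 450 nm (2 h development), expressed relative to DMSO vehicle. Cells (parental or T315I-Bcr-Abl Ba/F3, 1×10^4/well) received nine threefold-diluted concentrations, final 0 to 10 μM, for 72 h at 37 °C.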

A further experiment relates to Parental (Ba/F3). Description: Ba/F3 cell proliferation inhibition. Conditions: BaF3; 72 hours, Cell Counting Kit-8. In short, it runs like this:
as §2

Some results are limits rather than exact numbers.

With `Cc1cc(F)c(C(=O)Nc2cc(Oc3ccncc3)cc(C(F)(F)F)c2)cc1C#Cc1cnc2c(Nc3cn[nH]c3)cccn12` [Example 101, 5-((8-((1H-pyrazol-4-yl)amino)imidazo[1,2-a]pyridin-3-yl)ethynyl)-2-fluoro-4-methyl-N-(3-(pyridin-4-yloxy)-5-(trifluoromethyl)phenyl)benzamide], the GI50 was under 0.01 µM with TCCS cells; under 0.01 µM with KOPM28 cells; under 0.01 µM in the experiment with T315I-TCCS cells; 0.1 µM in the experiment with T315I-KOPM28 cells; under 0.05 µM with T315I-Bcr-Abl (Ba/F3); over 5 µM with Parental (Ba/F3).
As for `Cc1cc(F)c(C(=O)Nc2cc(OCCN(C)C)cc(C(F)(F)F)c2)cc1C#Cc1cnc2c(Nc3cn[nH]c3)cccn12` [Example 102, 5-((8-((1H-pyrazol-4-yl)amino)imidazo[1,2-a]pyridin-3-yl)ethynyl)-N-(3-(2-(dimethylamino)ethoxy)-5-(trifluoromethyl)phenyl)-2-fluoro-4-methylbenzamide], the GI50 was under 0.01 µM in the experiment on TCCS cells; under 0.01 µM with KOPM28 cells; 0.1 µM in the experiment with T315I-TCCS cells; over 0.1 µM with T315I-KOPM28 cells; 0.05 to 0.5 µM in the experiment on T315I-Bcr-Abl (Ba/F3); 0.5 to 5 µM with Parental (Ba/F3).
Consider `Cc1cc(F)c(C(=O)Nc2cc(OCCCN(C)C)cc(C(F)(F)F)c2)cc1C#Cc1cnc2c(Nc3cn[nH]c3)cccn12` [Example 103, 5-((8-((1H-pyrazol-4-yl)amino)imidazo[1,2-a]pyridin-3-yl)ethynyl)-N-(3-(3-(dimethylamino)propoxy)-5-(trifluoromethyl)phenyl)-2-fluoro-4-methylbenzamide], for which the GI50 in the experiment on TCCS cells was under 0.01 µM; in the experiment with KOPM28 cells, under 0.01 µM; in the experiment with T315I-TCCS cells, 0.1 µM; in the experiment with T315I-KOPM28 cells, over 0.1 µM; in the experiment with T315I-Bcr-Abl (Ba/F3) it was 0.05 to 0.5 µM; in the experiment on Parental (Ba/F3), over 5 µM.
As for `Cc1cc(F)c(C(=O)Nc2cc(CN3CCN(C)CC3)cc(C(F)(F)F)c2)cc1C#Cc1cnc2c(Nc3cn[nH]c3)cccn12` [Example 104, 5-((8-((1H-pyrazol-4-yl)amino)imidazo[1,2-a]pyridin-3-yl)ethynyl)-2-fluoro-4-methyl-N-(3-((4-methylpiperazin-1-yl)methyl)-5-(trifluoromethyl)phenyl)benzamide], the GI50 with TCCS cells is under 0.01 µM; with KOPM28 cells it was under 0.01 µM; in the experiment with T315I-TCCS cells, 0.1 µM; with T315I-KOPM28 cells it was over 0.1 µM; in the experiment on T315I-Bcr-Abl (Ba/F3) it was 0.05 to 0.5 µM; in the experiment with Parental (Ba/F3), 0.5 to 5 µM.
Consider `Cc1cc(F)c(C(=O)Nc2cc(CN3CCC(N(C)C)C3)cc(C(F)(F)F)c2)cc1C#Cc1cnc2c(Nc3cn[nH]c3)cccn12` (stereo not drawn) [Example 105, 5-((8-((1H-pyrazol-4-yl)amino)imidazo[1,2-a]pyridin-3-yl)ethynyl)-N-(3-((3-(dimethylamino)pyrrolidin-1-yl)methyl)-5-(trifluoromethyl)phenyl)-2-fluoro-4-methylbenzamide], for which the GI50 in the experiment on TCCS cells is under 0.01 µM; in the experiment on KOPM28 cells, under 0.01 µM; in the experiment with T315I-TCCS cells, under 0.01 µM; in the experiment with T315I-KOPM28 cells, 0.1 µM; with T315I-Bcr-Abl (Ba/F3), under 0.05 µM; in the experiment with Parental (Ba/F3) it was 0.5 to 5 µM.
As for `Cc1cc(F)c(C(=O)Nc2cc(CN3CCN(CCO)CC3)cc(C(F)(F)F)c2)cc1C#Cc1cnc2c(Nc3cn[nH]c3)cccn12` [Example 106, 5-((8-((1H-pyrazol-4-yl)amino)imidazo[1,2-a]pyridin-3-yl)ethynyl)-2-fluoro-N-(3-((4-(2-hydroxyethyl)piperazin-1-yl)methyl)-5-(trifluoromethyl)phenyl)-4-methylbenzamide], the GI50 with TCCS cells is under 0.01 µM; with KOPM28 cells, under 0.01 µM; in the experiment with T315I-TCCS cells it was 0.1 µM; in the experiment on T315I-KOPM28 cells, over 0.1 µM; in the experiment with T315I-Bcr-Abl (Ba/F3), 0.05 to 0.5 µM; in the experiment on Parental (Ba/F3) it was over 5 µM.
In the case of `Cc1cc(F)c(C(=O)Nc2cc(CN3CCN(C)C(=O)C3)cc(C(F)(F)F)c2)cc1C#Cc1cnc2c(Nc3cn[nH]c3)cccn12` [Example 107, 5-((8-((1H-pyrazol-4-yl)amino)imidazo[1,2-a]pyridin-3-yl)ethynyl)-2-fluoro-4-methyl-N-(3-((4-methyl-3-oxopiperazin-1-yl)methyl)-5-(trifluoromethyl)phenyl)benzamide], the GI50 with TCCS cells is under 0.01 µM; with KOPM28 cells, under 0.01 µM; in the experiment with T315I-TCCS cells it was 0.1 µM; with T315I-KOPM28 cells it was over 0.1 µM; in the experiment on T315I-Bcr-Abl (Ba/F3), 0.05 to 0.5 µM; with Parental (Ba/F3), 0.5 to 5 µM.
Turning to `Cc1cc(F)c(C(=O)Nc2cc(Cn3cncn3)cc(C(F)(F)F)c2)cc1C#Cc1cnc2c(Nc3cn[nH]c3)cccn12` [Example 108, N-(3-((1H-1,2,4-triazol-1-yl)methyl)-5-(trifluoromethyl)phenyl)-5-((8-((1H-pyrazol-4-yl)amino)imidazo[1,2-a]pyridin-3-yl)ethynyl)-2-fluoro-4-methylbenzamide], the GI50 was under 0.01 µM in the experiment on TCCS cells; under 0.01 µM with KOPM28 cells; 0.1 µM with T315I-TCCS cells; over 0.1 µM with T315I-KOPM28 cells; 0.05 to 0.5 µM in the experiment with T315I-Bcr-Abl (Ba/F3); over 5 µM in the experiment on Parental (Ba/F3).
In the case of `Cc1cc(F)c(C(=O)Nc2ccc(CN3CCN(C)CC3)c(C(F)(F)F)c2)cc1C#Cc1cnc2c(Nc3cn[nH]c3)cccn12` [Example 109, 5-((8-((1H-pyrazol-4-yl)amino)imidazo[1,2-a]pyridin-3-yl)ethynyl)-2-fluoro-4-methyl-N-(4-((4-methylpiperazin-1-yl)methyl)-3-(trifluoromethyl)phenyl)benzamide], the GI50 in the experiment with TCCS cells was under 0.01 µM; in the experiment on KOPM28 cells it was under 0.01 µM; with T315I-TCCS cells, under 0.01 µM; in the experiment on T315I-KOPM28 cells it was under 0.01 µM; with T315I-Bcr-Abl (Ba/F3), under 0.05 µM; with Parental (Ba/F3), 0.5 to 5 µM.
Turning to `Cc1cc(F)c(C(=O)Nc2ccc(CN3CCC(N(C)C)C3)c(C(F)(F)F)c2)cc1C#Cc1cnc2c(Nc3cn[nH]c3)cccn12` (stereo not drawn) [Example 110, 5-((8-((1H-pyrazol-4-yl)amino)imidazo[1,2-a]pyridin-3-yl)ethynyl)-N-(4-((3-(dimethylamino)pyrrolidin-1-yl)methyl)-3-(trifluoromethyl)phenyl)-2-fluoro-4-methylbenzamide], the concentration for 50% growth inhibition (GI50) with TCCS cells is under 0.01 µM; in the experiment on KOPM28 cells, under 0.01 µM; in the experiment with T315I-TCCS cells it was 0.1 µM; in the experiment with T315I-KOPM28 cells it was 0.1 µM; with T315I-Bcr-Abl (Ba/F3), under 0.05 µM; in the experiment with Parental (Ba/F3) it was 0.5 to 5 µM.
Take `Cc1cc(F)c(C(=O)Nc2ccc(CN3CCN(CCO)CC3)c(C(F)(F)F)c2)cc1C#Cc1cnc2c(Nc3cn[nH]c3)cccn12` [Example 111, 5-((8-((1H-pyrazol-4-yl)amino)imidazo[1,2-a]pyridin-3-yl)ethynyl)-2-fluoro-N-(4-((4-(2-hydroxyethyl)piperazin-1-yl)methyl)-3-(trifluoromethyl)phenyl)-4-methylbenzamide]: the GI50 in the experiment on TCCS cells was under 0.01 µM; in the experiment with KOPM28 cells, under 0.01 µM; with T315I-TCCS cells, under 0.01 µM; with T315I-KOPM28 cells, under 0.01 µM; with T315I-Bcr-Abl (Ba/F3), 0.05 to 0.5 µM; with Parental (Ba/F3), 0.5 to 5 µM.
Turning to `Cc1cc(F)c(C(=O)Nc2ccc(CN3CCN(C)C(=O)C3)c(C(F)(F)F)c2)cc1C#Cc1cnc2c(Nc3cn[nH]c3)cccn12` [Example 112, 5-((8-((1H-pyrazol-4-yl)amino)imidazo[1,2-a]pyridin-3-yl)ethynyl)-2-fluoro-4-methyl-N-(4-((4-methyl-3-oxopiperazin-1-yl)methyl)-3-(trifluoromethyl)phenyl)benzamide], the GI50 was under 0.01 µM with TCCS cells; under 0.01 µM in the experiment on KOPM28 cells; 0.1 µM with T315I-TCCS cells; 0.1 µM in the experiment with T315I-KOPM28 cells; 0.05 to 0.5 µM in the experiment with T315I-Bcr-Abl (Ba/F3); 0.5 to 5 µM in the experiment on Parental (Ba/F3).
Take `Cc1cc(F)c(C(=O)Nc2ccc(CN3CCN(S(C)(=O)=O)CC3)c(C(F)(F)F)c2)cc1C#Cc1cnc2c(Nc3cn[nH]c3)cccn12` [Example 113, 5-((8-((1H-pyrazol-4-yl)amino)imidazo[1,2-a]pyridin-3-yl)ethynyl)-2-fluoro-4-methyl-N-(4-((4-(methylsulfonyl)piperazin-1-yl)methyl)-3-(trifluoromethyl)phenyl)benzamide]: the GI50 with TCCS cells was under 0.01 µM; in the experiment with KOPM28 cells, under 0.01 µM; in the experiment on T315I-TCCS cells, over 0.1 µM; with T315I-KOPM28 cells, over 0.1 µM; in the experiment with T315I-Bcr-Abl (Ba/F3), 0.5 to 5 µM; in the experiment on Parental (Ba/F3), over 5 µM.
`Cc1cc(F)c(C(=O)Nc2ccc(Cn3cncn3)c(C(F)(F)F)c2)cc1C#Cc1cnc2c(Nc3cn[nH]c3)cccn12` [Example 114, N-(4-((1H-1,2,4-triazol-1-yl)methyl)-3-(trifluoromethyl)phenyl)-5-((8-((1H-pyrazol-4-yl)amino)imidazo[1,2-a]pyridin-3-yl)ethynyl)-2-fluoro-4-methylbenzamide]: the GI50 in the experiment on TCCS cells is under 0.01 µM; in the experiment on KOPM28 cells it was under 0.01 µM; in the experiment with T315I-TCCS cells, over 0.1 µM; in the experiment with T315I-KOPM28 cells, over 0.1 µM; in the experiment with T315I-Bcr-Abl (Ba/F3), 0.05 to 0.5 µM; with Parental (Ba/F3), over 5 µM.
